Test results from ChEMBL document CHEMBL5291721, “A preclinical secondary pharmacology resource illuminates target-adverse drug reaction associations of marketed drugs” (Nat Commun, 2023).

Tests used:
[1] = target: T1, Equilibrative nucleoside transporter 1 (Homo sapiens, UniProt Q99808)
T1 sequence (Q99808 whole entry): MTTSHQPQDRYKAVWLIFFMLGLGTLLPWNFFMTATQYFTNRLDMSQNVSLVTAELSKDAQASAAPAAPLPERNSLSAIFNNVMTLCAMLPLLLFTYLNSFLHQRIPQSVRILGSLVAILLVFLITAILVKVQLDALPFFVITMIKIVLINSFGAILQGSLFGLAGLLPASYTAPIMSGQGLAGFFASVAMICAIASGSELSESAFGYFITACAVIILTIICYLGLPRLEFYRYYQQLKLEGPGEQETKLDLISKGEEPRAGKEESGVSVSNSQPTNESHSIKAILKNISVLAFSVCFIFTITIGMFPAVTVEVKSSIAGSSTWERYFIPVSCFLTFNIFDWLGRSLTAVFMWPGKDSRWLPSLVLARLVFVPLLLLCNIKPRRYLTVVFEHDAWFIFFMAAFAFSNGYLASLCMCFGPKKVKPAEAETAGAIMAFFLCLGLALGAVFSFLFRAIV

Endothelin-1 receptor = target: T2, Endothelin-1 receptor (Homo sapiens, UniProt P25101)
T2 sequence (P25101 whole entry): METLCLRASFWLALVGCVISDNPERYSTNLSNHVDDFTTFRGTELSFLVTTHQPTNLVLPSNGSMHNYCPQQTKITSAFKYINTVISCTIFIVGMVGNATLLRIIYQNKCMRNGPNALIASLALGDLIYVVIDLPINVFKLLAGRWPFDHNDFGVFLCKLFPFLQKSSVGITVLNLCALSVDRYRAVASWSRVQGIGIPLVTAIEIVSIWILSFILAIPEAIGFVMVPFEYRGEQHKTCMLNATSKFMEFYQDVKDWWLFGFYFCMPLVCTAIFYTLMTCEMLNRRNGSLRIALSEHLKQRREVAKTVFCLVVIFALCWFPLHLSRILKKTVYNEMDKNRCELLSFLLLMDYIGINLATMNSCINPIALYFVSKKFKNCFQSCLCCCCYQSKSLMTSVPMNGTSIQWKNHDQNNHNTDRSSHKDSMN

Mu-type opioid receptor = Mu-type opioid receptor (Homo sapiens, UniProt P35372); assay: biochemical; assay type: functional
Mu-type opioid receptor, sequence (P35372 whole entry): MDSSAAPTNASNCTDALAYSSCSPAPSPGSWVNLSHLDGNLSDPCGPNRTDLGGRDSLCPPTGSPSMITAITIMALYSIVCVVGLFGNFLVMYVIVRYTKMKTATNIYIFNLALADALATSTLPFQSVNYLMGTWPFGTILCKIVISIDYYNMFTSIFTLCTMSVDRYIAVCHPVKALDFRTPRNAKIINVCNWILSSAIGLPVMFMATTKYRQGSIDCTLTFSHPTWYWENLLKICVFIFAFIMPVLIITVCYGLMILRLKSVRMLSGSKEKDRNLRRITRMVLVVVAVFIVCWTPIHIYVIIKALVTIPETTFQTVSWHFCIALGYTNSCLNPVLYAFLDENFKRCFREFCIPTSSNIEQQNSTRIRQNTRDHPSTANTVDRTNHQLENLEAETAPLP

Estrogen receptor = target: T3, Estrogen receptor (Homo sapiens, UniProt P03372)
T3 sequence (P03372 whole entry): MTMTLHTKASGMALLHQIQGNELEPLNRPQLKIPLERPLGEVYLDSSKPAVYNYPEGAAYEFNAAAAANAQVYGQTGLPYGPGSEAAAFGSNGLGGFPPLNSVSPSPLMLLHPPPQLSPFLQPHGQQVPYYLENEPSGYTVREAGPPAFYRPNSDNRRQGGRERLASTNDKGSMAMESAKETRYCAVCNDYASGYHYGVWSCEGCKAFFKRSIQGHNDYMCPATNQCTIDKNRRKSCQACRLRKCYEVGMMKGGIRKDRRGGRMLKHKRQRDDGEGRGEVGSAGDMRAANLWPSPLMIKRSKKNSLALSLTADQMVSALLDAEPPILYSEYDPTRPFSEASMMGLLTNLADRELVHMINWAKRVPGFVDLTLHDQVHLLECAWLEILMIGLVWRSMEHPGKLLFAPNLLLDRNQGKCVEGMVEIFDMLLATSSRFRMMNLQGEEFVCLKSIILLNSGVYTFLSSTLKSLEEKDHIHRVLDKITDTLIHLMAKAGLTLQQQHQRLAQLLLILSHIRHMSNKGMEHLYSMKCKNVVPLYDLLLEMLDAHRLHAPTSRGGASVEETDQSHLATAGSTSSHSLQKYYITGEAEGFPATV

Glucocorticoid receptor = target: T4, Glucocorticoid receptor (Homo sapiens, UniProt P04150)
T4 sequence (P04150 whole entry): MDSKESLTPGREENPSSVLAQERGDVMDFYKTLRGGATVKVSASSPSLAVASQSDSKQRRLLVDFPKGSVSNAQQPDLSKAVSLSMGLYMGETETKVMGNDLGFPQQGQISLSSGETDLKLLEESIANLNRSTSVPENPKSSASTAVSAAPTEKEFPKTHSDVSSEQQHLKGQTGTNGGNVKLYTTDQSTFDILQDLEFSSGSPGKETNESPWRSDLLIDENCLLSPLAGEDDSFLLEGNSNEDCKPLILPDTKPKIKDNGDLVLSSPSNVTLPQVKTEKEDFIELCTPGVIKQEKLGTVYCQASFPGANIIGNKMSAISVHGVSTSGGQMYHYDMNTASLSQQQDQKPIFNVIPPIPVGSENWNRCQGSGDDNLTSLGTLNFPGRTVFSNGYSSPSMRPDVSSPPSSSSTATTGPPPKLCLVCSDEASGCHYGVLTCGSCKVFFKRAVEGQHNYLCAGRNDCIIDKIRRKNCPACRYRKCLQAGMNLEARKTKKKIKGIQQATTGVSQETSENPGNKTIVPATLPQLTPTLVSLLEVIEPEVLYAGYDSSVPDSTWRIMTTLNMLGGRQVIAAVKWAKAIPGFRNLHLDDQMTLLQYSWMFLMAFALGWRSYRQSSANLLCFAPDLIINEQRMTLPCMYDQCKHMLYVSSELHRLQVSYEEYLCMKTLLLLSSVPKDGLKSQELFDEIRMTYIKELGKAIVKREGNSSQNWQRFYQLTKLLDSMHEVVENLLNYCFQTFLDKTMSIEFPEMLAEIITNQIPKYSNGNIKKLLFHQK

[2] = target: Beta-2 adrenergic receptor (Homo sapiens, UniProt P07550)
Beta-2 adrenergic receptor, sequence (P07550 whole entry): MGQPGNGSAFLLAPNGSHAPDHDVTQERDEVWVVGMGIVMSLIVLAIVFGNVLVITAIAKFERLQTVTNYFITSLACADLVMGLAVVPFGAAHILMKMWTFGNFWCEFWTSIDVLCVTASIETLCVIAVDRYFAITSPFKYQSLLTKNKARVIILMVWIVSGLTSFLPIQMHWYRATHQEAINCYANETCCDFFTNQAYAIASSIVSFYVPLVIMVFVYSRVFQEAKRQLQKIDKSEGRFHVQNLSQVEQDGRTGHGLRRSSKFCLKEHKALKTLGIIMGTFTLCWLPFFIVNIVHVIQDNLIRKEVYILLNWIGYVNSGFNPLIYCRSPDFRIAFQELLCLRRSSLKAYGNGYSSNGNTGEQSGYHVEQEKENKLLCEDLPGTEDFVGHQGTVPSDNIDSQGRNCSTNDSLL

[3] = target: Sodium-dependent serotonin transporter (Homo sapiens, UniProt P31645)
Sodium-dependent serotonin transporter, sequence (P31645 whole entry): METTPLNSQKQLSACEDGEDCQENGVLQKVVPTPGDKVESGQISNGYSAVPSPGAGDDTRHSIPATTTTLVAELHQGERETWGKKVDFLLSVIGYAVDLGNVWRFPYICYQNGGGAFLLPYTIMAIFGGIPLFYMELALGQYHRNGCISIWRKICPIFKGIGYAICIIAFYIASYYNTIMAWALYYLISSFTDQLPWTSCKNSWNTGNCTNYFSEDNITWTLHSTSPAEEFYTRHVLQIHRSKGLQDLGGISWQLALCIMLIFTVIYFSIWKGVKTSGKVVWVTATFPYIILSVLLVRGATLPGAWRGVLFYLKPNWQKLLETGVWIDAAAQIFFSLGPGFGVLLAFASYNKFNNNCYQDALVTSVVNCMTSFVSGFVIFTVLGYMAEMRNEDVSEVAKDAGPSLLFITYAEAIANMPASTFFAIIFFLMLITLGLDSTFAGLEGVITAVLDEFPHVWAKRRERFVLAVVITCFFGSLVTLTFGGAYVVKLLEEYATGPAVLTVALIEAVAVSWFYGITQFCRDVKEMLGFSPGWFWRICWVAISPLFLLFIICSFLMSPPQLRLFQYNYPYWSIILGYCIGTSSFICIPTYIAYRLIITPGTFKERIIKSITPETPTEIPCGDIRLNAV

Melanocortin receptor 4 = Melanocortin receptor 4 (Homo sapiens, UniProt P32245)
Melanocortin receptor 4, sequence (P32245 whole entry): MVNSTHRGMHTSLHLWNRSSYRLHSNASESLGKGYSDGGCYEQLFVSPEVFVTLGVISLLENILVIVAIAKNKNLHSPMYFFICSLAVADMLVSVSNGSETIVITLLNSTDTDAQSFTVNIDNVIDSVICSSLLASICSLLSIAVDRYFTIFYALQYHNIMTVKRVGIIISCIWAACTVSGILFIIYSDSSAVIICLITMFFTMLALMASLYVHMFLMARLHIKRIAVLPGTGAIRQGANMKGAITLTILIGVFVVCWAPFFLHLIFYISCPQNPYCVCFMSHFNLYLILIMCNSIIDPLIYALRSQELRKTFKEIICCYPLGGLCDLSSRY

Cannabinoid receptor 1 = Cannabinoid receptor 1 (Homo sapiens, UniProt P21554)
Cannabinoid receptor 1, sequence (P21554 whole entry): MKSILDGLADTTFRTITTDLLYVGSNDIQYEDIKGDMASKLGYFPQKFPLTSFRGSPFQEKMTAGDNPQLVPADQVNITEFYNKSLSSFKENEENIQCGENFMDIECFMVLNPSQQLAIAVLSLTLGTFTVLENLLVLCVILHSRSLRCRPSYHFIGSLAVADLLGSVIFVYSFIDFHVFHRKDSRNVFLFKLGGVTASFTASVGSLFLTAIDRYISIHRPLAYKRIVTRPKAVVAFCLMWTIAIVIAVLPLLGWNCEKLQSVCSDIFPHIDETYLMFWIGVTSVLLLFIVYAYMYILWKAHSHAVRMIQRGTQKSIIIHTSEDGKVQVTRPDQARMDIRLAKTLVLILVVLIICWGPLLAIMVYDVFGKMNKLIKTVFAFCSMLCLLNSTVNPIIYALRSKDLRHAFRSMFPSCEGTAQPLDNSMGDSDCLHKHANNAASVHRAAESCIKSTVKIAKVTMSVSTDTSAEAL

[4] = target: T5, 5-hydroxytryptamine receptor 1A (Homo sapiens, UniProt P08908); assay type: functional, cell-based
T5 sequence (P08908 whole entry): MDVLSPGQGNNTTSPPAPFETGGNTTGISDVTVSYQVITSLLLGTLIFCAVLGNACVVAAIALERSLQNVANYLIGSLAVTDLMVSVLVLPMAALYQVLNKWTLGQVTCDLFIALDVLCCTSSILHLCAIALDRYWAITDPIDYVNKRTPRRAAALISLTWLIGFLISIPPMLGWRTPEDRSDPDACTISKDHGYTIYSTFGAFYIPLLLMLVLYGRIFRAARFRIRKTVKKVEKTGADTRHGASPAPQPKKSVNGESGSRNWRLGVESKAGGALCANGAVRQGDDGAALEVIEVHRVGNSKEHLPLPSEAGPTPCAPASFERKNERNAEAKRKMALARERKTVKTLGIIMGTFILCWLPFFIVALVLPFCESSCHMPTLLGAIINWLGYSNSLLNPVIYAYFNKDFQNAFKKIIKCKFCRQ
Further: assay procedure not described here.

Structure (SMILES) | AC50 [1] | AC50 (Endothelin-1 receptor) | AC50 (Mu-type opioid receptor) | AC50 (Estrogen receptor) | AC50 (Glucocorticoid receptor) | AC50 [2] | AC50 [3] | AC50 (Melanocortin receptor 4) | AC50 (Cannabinoid receptor 1) | AC50 [4]
CC(C)(Oc1ccc(Cl)cc1)C(=O)OCCOC(=O)c1cccnc1 [ETOFIBRATE] | > 30 µM | > 30 µM | > 30 µM | > 30 µM | > 30 µM | > 30 µM | > 30 µM | – | – | –
COc1ccc(C(=O)c2ccccc2)c(O)c1 [OXYBENZONE] | – | – | > 30 µM | – | – | – | – | – | – | –
Cc1ccc(O)c([C@H](CCN(C(C)C)C(C)C)c2ccccc2)c1 [TOLTERODINE] | – | – | – | – | – | – | > 10 µM | – | > 10 µM | > 10 µM
N=C(N)NC(=O)c1nc(Cl)c(N)nc1N [AMILORIDE] | > 30 µM | > 30 µM | 4 µM | > 30 µM | > 30 µM | > 30 µM | – | > 30 µM | > 30 µM | 16 µM
CC1(C)O[C@@H]2C[C@H]3[C@@H]4CCC5=CC(=O)C=C[C@]5(C)[C@@]4(F)[C@@H](O)C[C@]3(C)[C@]2(C(=O)CO)O1 [TRIAMCINOLONE ACETONIDE] | – | > 30 µM | > 30 µM | – | 0.0031 µM | – | – | – | – | > 30 µM
CC(C)(C)NCC(O)COc1ccccc1C#N (centres undefined) [BUNITROLOL] | – | – | > 30 µM | – | – | – | – | – | – | –
Oc1cc(Cl)ccc1Oc1ccc(Cl)cc1Cl [TRICLOSAN] | – | > 30 µM | > 30 µM | – | > 30 µM | – | > 30 µM | – | – | –
COc1cccc2c1C(=O)c1c(O)c3c(c(O)c1C2=O)C[C@@](O)(C(=O)CO)C[C@@H]3O[C@H]1C[C@H](N)[C@H](O)[C@H](C)O1 [DOXORUBICIN] | > 30 µM | > 30 µM | – | 0.53 µM | 2.59 µM | > 10 µM | – | > 30 µM | > 10 µM | –

Now from value to molecule:

AC50 [1] | AC50 (Endothelin-1 receptor) | AC50 (Mu-type opioid receptor) | AC50 (Estrogen receptor) | AC50 (Glucocorticoid receptor) | AC50 [2] | AC50 [3] | AC50 (Melanocortin receptor 4) | AC50 (Cannabinoid receptor 1) | AC50 [4] | Structure (SMILES)
> 10 µM | – | – | – | 25.8 µM | > 10 µM | > 10 µM | > 10 µM | > 10 µM | > 30 µM | CN(C)[C@@H]1C(O)=C(C(=O)NCN2CCCC2)C(=O)[C@@]2(O)C(O)=C3C(=O)c4c(O)cccc4[C@@](C)(O)[C@H]3C[C@@H]12 [ROLITETRACYCLINE]
> 10 µM | – | – | > 30 µM | > 30 µM | > 10 µM | > 10 µM | > 10 µM | > 10 µM | 2.7 µM | CCC(=O)c1ccc2c(c1)N(CC(C)N(C)C)c1ccccc1S2 (centres undefined) [PROPIOMAZINE]
5.4 µM | > 10 µM | > 30 µM | > 30 µM | > 30 µM | 13 µM | > 10 µM | – | – | > 30 µM | COc1ccc(-c2cc(=S)ss2)cc1 [ANETHOLTRITHION]
> 10 µM | – | – | > 10 µM | > 10 µM | > 10 µM | > 10 µM | > 10 µM | > 10 µM | – | CN(C)CCC(O)(c1ccccc1)c1ccccc1Cl (centres undefined) [CHLOPHEDIANOL]
> 30 µM | > 30 µM | – | > 30 µM | – | > 10 µM | – | > 30 µM | > 10 µM | > 10 µM | C[C@]12C=CC(=O)C=C1CC[C@@H]1[C@@H]2[C@@H](O)C[C@@]2(C)[C@H]1CC[C@]2(O)C(=O)CO [PREDNISOLONE]
> 30 µM | > 30 µM | > 30 µM | > 30 µM | 0.032 µM | – | > 30 µM | – | – | > 30 µM | C[C@]12C=CC(=O)C=C1C(Cl)=C[C@@H]1[C@@H]2[C@@H](O)C[C@@]2(C)[C@H]1CC[C@]2(O)C(=O)CO [CLOPREDNOL]
> 30 µM | > 30 µM | > 30 µM | – | – | > 30 µM | > 30 µM | – | > 30 µM | – | C[C@]12CCC(=O)C=C1[C@@H]1C[C@@H]1[C@H]1[C@@H]3[C@@H]4C[C@@H]4[C@@]4(CCC(=O)O4)[C@@]3(C)CC[C@@H]12 [DROSPIRENONE]
> 30 µM | > 30 µM | > 30 µM | > 30 µM | 1.3 µM | > 30 µM | > 30 µM | – | – | > 30 µM | C[C@]12CCC(=O)C=C1C=C[C@@H]1[C@@H]2CC[C@@]2(C)[C@H]1CC[C@@]21CCC(=O)O1 [CANRENONE]
